From US20080090805A1, “CB-1 MODULATING COMPOUNDS AND THEIR USE” (ACADIA PHARMACEUTICALS INC., priority 2005, published 2008)
Read-outs that look alike come from different tables or passages of the source.

Molecular target: CB1 (mutant) (Homo sapiens, UniProt P21554)
Test: R-SAT functional receptor assay, CB1 (mutant, truncated after amino acid 417)
Format: cell-based
Conditions: R-SAT CB1; for IC50 / pIC50: receptor form (mutant or wild-type) not stated; for Emax: read-out: % Inhibition
[1] = Appendix A, read-out: pIC50 (converted)
[2] = Appendix A, receptor form not stated, relative to SR141716 (100%)

Sequence of CB1 (mutant) (P21554 1-417, change not shown): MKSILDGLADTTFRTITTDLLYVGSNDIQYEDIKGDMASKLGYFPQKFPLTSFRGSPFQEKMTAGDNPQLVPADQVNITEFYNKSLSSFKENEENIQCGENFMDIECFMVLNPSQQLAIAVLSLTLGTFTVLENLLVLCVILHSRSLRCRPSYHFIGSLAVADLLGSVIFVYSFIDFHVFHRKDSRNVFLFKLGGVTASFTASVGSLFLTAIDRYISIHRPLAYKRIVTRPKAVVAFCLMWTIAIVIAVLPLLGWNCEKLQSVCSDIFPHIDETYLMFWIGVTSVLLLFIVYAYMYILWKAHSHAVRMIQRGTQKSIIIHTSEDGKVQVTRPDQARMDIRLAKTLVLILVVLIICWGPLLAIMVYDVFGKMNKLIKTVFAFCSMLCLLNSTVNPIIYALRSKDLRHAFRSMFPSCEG

| SMILES | IC50 [1] | Emax [2] | IC50 (pIC50, Appendix A) | % Inhibition [2] | pIC50 (Appendix A) |
| --- | --- | --- | --- | --- | --- |
| NS(=O)(=O)c1ccc(CNC(=O)c2ccc3c(c2)N=C(NCc2ccc(Cl)cc2)c2ccccc2S3)cc1 | 1580 nM | 41% | – | – | – |
| O=C(NN1CCCCCC1)c1ccc2c(c1)N=C(c1sccc1Cl)c1ccccc1S2 | – | 82% | 20 nM | – | – |
| O=C(NCc1ccccc1)c1ccc2c(c1)N=C(c1ccccc1F)c1ccccc1S2 [drawing 1015] | 25.1 nM | 96% | – | – | – |
| COCCNC(=O)c1ccc2c(c1)N=C(c1ccc(Br)cc1)c1ccccc1S2 [drawing 1081] | 31.6 nM | 69% | – | – | – |
| CCCCN(C)C(=O)c1ccc2c(c1)N=C(c1ccc(Cl)cc1F)c1ccccc1S2 | – | 84% | – | – | – |
| COc1ccc(C2=Nc3cc(C(=O)NC(C)C)ccc3Sc3ccccc32)cc1 [drawing 780] | 100 nM | 84% | – | – | – |
| CCCCNC(=O)c1ccc2c(c1)N=C(c1cccc(F)c1)c1ccccc1S2 [drawing 719] | 7.94 nM | 113% | – | – | – |
| O=C(NCCc1ccc(Cl)cc1)c1ccc2c(c1)N=C(c1ccccc1F)c1ccccc1S2 [drawing 1085] | – | 101% | 31.6 nM | – | – |
| CCCC1=Nc2cc(C(=O)N3CCN(C(=O)c4ccco4)CC3)ccc2Sc2ccccc21 | 2510 nM | 88% | – | – | – |
| O=C(NCCc1ccncc1)c1ccc2c(c1)N=C(c1ccc(Cl)cc1Cl)c1ccccc1S2 | 316 nM | 72% | – | – | – |
| Cc1ccsc1C1=Nc2cc(C(=O)NCCc3ccncc3)ccc2Sc2ccccc21 | 100 nM | 101% | – | – | – |
| COc1ccccc1C1=Nc2cc(C(=O)NCC(C)C)ccc2Sc2ccccc21 | 158 nM | 91% | – | – | – |
| CCONC(=O)c1ccc2c(c1)N=C(c1ccc(Cl)cc1F)c1ccccc1S2 | 200 nM | 87% | – | – | – |
| CCCCN(C)C(=O)c1ccc2c(c1)N=C(c1sccc1C)c1ccccc1S2 | 158 nM | 72% | – | – | – |
| COc1ccccc1C1=Nc2cc(C(=O)NC3CCCCC3)ccc2Sc2ccccc21 | 316 nM | 72% | – | – | – |
| CCN(CCNC(=O)c1ccc2c(c1)N=C(C1CCCCC1)c1ccccc1S2)c1ccccc1 [drawing 865] | 15.8 nM | 105% | – | – | – |
| O=C(NCCc1ccccn1)c1ccc2c(c1)N=C(c1ccc(Cl)cc1)c1ccccc1S2 [drawing 1049] | 31.6 nM | 93% | – | – | – |
| CONC(=O)c1ccc2c(c1)N=C(c1cccc(Br)c1)c1ccccc1S2 | 501 nM | 73% | – | – | – |
| CCCC1=Nc2cc(C(=O)NCc3ccccc3)ccc2Sc2ccccc21 | 20 nM | 111% | – | – | – |
| O=C(NCc1cccnc1)c1ccc2c(c1)N=C(c1ccc(Cl)c(Cl)c1)c1ccccc1S2 [drawing 669] | 6.31 nM | 107% | – | – | – |
| O=C(NCCc1ccccn1)c1ccc2c(c1)N=C(c1ccc(Cl)cc1)c1ccccc1S2 [drawing 1005] | 25.1 nM | – | – | 92% | – |
| CON(C)C(=O)c1ccc2c(c1)N=C(c1ccc(Cl)cc1Cl)c1ccccc1S2 | – | 18% | – | – | 1.0 |
| Cc1ccsc1C1=Nc2cc(C(=O)NCCc3cccnc3)ccc2Sc2ccccc21 [drawing 694] | 63.1 nM | 121% | – | – | – |
| CCCC1=Nc2cc(C(=O)NCCCN3CCN(c4ccccc4F)CC3)ccc2Sc2ccccc21 | 398 nM | 120% | – | – | – |
| CC(CNC(=O)c1ccc2c(c1)N=C(N1CCCCC1)c1ccccc1S2)c1ccccc1 (stereo not shown) [drawing 1017] | 25.1 nM | 105% | – | – | – |

| SMILES | IC50 [1] | Emax [2] | IC50 (pIC50, Appendix A) | % Inhibition [2] | pIC50 (Appendix A) |
| --- | --- | --- | --- | --- | --- |
| O=C(NCc1ccccc1)c1ccc2c(c1)N=C(N1CCCCC1)c1ccccc1S2 [drawing 681] | 6.31 nM | 110% | – | – | – |
| CCCCNC(=O)c1ccc2c(c1)N=C(c1ccccc1)c1ccccc1S2 [drawing 761] | 10 nM | 104% | – | – | – |
| CCOCCNC(=O)c1ccc2c(c1)N=C(c1cccc(Br)c1)c1ccccc1S2 [drawing 789] | 10 nM | 119% | – | – | – |
| Cc1cccnc1C1=Nc2cc(C(=O)NCCC(C)C)ccc2Sc2ccccc21 | 63.1 nM | 94% | – | – | – |
| O=C(NCCCC(F)(F)F)c1ccc2c(c1)N=C(c1ccsc1)c1ccccc1S2 [drawing 555] | 2 nM | 90% | – | – | – |
| Cc1cccnc1C1=Nc2cc(C(=O)NC3CCCCC3)ccc2Sc2ccccc21 | 501 nM | 61% | – | – | – |
| CCCC1=Nc2cc(C(=O)NCCc3ccc(OC)c(OC)c3)ccc2Sc2ccccc21 | 31.6 nM | 105% | – | – | – |
| O=C(c1ccc2c(c1)N=C(c1ccccc1F)c1ccccc1S2)N1CCCCC1 | 79.4 nM | 73% | – | – | – |
| O=C(NCc1cccc(Cl)c1)c1ccc2c(c1)N=C(N1CCCCC1)c1cc(F)ccc1S2 [drawing 649] | 5.01 nM | 107% | – | – | – |
| CCOC(=O)N1CCC(NC(=O)c2ccc3c(c2)N=C(c2ccc(Cl)cc2)c2ccccc2S3)CC1 [drawing 1101] | 31.6 nM | 109% | – | – | – |
| CONC(=O)c1ccc2c(c1)N=C(c1ccccc1Cl)c1ccccc1S2 | – | -15% | – | – | 1.0 |
| CONC(=O)c1ccc2c(c1)N=C(c1cccc(F)c1)c1ccccc1S2 | 1000 nM | 67% | – | – | – |
| CCCCC(=O)c1ccc2c(c1)N=C(C1CCCCC1)c1ccccc1S2 | 50.1 nM | 37% | – | – | – |
| Cc1csc(CNC(=O)c2ccc3c(c2)N=C(c2cccc(C)n2)c2ccccc2S3)c1 [drawing 561] | 2.51 nM | 85% | – | – | – |
| COCCNC(=O)c1ccc2c(c1)N=C(c1cccc(F)c1)c1ccccc1S2 [drawing 1025] | 25.1 nM | 115% | – | – | – |
| CC(C)NC(=O)c1ccc2c(c1)N=C(c1ccc(Cl)cc1Cl)c1ccccc1S2 | – | 45% | – | – | – |
| CCCC1=Nc2cc(C(=O)N3CCN(Cc4ccc5c(c4)OCO5)CC3)ccc2Sc2ccccc21 | – | 96% | – | – | – |
| Cc1ccc(CNC(=O)c2ccc3c(c2)N=C(c2cccc(F)c2)c2ccccc2S3)o1 [drawing 947] | – | 69% | 20 nM | – | – |
| CCCC1=Nc2cc(C(=O)NCCCN3CCC(c4cc(Cl)ccc4C)CC3)ccc2Sc2ccccc21 | 316 nM | 117% | – | – | – |
| O=C(NCc1ccc(Cl)cc1Cl)c1ccc2c(c1)N=C(N1CCCCC1)c1ccccc1S2 [drawing 1123] | 39.8 nM | 101% | – | – | – |
| CCONC(=O)c1ccc2c(c1)N=C(c1ccc(Cl)c(Cl)c1)c1ccccc1S2 [drawing 806] | – | 87% | – | – | – |
| O=C(NCc1ccncc1)c1ccc2c(c1)N=C(c1cccc(F)c1)c1ccccc1S2 | 50.1 nM | 95% | – | – | – |
| CCOC(=O)c1ccc(C2=Nc3cc(C(=O)NNC(=O)Cc4ccccc4)ccc3Sc3ccccc32)cc1 | 3160 nM | 61% | – | – | – |
| CCCCNC(=O)c1ccc2c(c1)N=C(c1ccc(Cl)cc1Cl)c1ccccc1S2 [drawing 1165] | 39.8 nM | 98% | – | – | – |
| CCCC1=Nc2cc(C(=O)NCCN(CC(C)C)CC(C)C)ccc2Sc2ccccc21 | 63.1 nM | 105% | – | – | – |

| SMILES | IC50 [1] | Emax [2] | IC50 (pIC50, Appendix A) | % Inhibition [2] | pIC50 (Appendix A) |
| --- | --- | --- | --- | --- | --- |
| CCCNC1=Nc2cc(C(=O)NN3CCCCC3)ccc2Sc2ccccc21 | 1580 nM | 89% | – | – | – |
| CCCC1=Nc2cc(C(=O)NCCN3CCCC3)ccc2Sc2ccccc21 | 3160 nM | 138% | – | – | – |
| CCCCNC(=O)c1ccc2c(n1)N=C(c1ccccc1)c1ccccc1S2 | 12.6 nM | 98% | – | – | – |
| O=C(NCCc1ccccn1)c1ccc2c(c1)N=C(c1ccc(Br)cc1)c1ccccc1S2 [drawing 734] | 79.4 nM | 89% | – | – | – |
| O=C(NN1CCCCC1)c1ccc2c(c1)N=C(c1ccc(Cl)cn1)c1ccccc1S2 [drawing 959] | 20 nM | 112% | – | – | – |
| COc1ccc(C2=Nc3cc(C(=O)NCc4ccncc4)ccc3Sc3ccccc32)cc1 [drawing 728] | 79.4 nM | 105% | – | – | – |
| Cc1cccnc1C1=Nc2cc(C(=O)NCc3cccs3)ccc2Sc2ccccc21 | 100 nM | 97% | – | – | – |
| CCOCCNC(=O)c1ccc2c(c1)N=C(c1ccc(C#N)cc1)c1ccccc1S2 [drawing 788] | 100 nM | 74% | – | – | – |
| CCCC1=Nc2cc(C(=O)NCCc3cc(OC)ccc3OC)ccc2Sc2ccccc21 [drawing 1051] | 31.6 nM | 98% | – | – | – |
| CCN(CCNC(=O)c1ccc2c(c1)N=C(c1ccc(F)cc1)c1ccccc1S2)c1ccccc1 [drawing 773] | 10 nM | 99% | – | – | – |
| O=C(c1ccc2c(c1)N=C(N1CCCCC1)c1ccccc1S2)N1CCCCC1 | 200 nM | 89% | – | – | – |
| CCCCN(C)C(=O)c1ccc2c(c1)N=C(c1cccc(F)c1)c1ccccc1S2 | 63.1 nM | 90% | – | – | – |
| CCCCN(C)C(=O)c1ccc2c(c1)N=C(c1ncccc1C)c1ccccc1S2 | – | 14% | – | – | 1.0 |
| CCCC1=Nc2cc(C(=O)NCCN(CC)CC)ccc2Sc2ccccc21 | 1580 nM | 131% | – | – | – |
| CCCCN(C)CCCNC(=O)c1ccc2c(c1)N=C(CCC)c1ccccc1S2 | 794 nM | 124% | – | – | – |
| COc1ccc(C2=Nc3cc(C(=O)NNC(=O)c4ccccc4)ccc3Sc3ccccc32)cc1 [drawing 798] | – | 83% | – | – | – |
| CCOCCNC(=O)c1ccc2c(c1)N=C(N1CCCCC1)c1ccccc1S2 | 794 nM | 103% | – | – | – |
| CC(NC(=O)c1ccc2c(c1)N=C(c1ccccc1F)c1ccccc1S2)c1ccccc1 (stereo not shown) [drawing 748] | 79.4 nM | 69% | – | – | – |
| CCONC(=O)c1ccc2c(c1)N=C(c1ccc(Cl)cc1Cl)c1ccccc1S2 | 3160 nM | 37% | – | – | – |
| CCCC1=Nc2cc(C(=O)NCCCN3CCN(C)CC3)ccc2Sc2ccccc21 | 2510 nM | 120% | – | – | – |
| O=C(NCc1cccc(Cl)c1)c1ccc2c(c1)N=C(c1ccc(F)cc1)c1ccccc1[S+]2[O-] (stereo not shown) [drawing 670] | – | 89% | – | – | – |
| CCCNC(=O)c1ccc2c(c1)N=C(c1ccc(Cl)s1)c1ccccc1S2 [drawing 675] | 6.31 nM | 88% | – | – | – |
| CCCC1=Nc2cc(C(=O)NC3CCN(C(=O)OCC)CC3)ccc2Sc2ccccc21 | 251 nM | 77% | – | – | – |
| O=C(NCCC(F)(F)F)c1ccc2c(c1)N=C(c1ccc(F)cc1)c1ccccc1S2 [drawing 827] | 12.6 nM | 98% | – | – | – |
